Values quoted from earlier work in patent publication US9636300B2, “Racecadotril lipid compositions” (JOHNSON & JOHNSON CONSUMER INC., priority 2013, dated 2017).

Conditions: room temperature conditions

- water solubility: about 10 micrograms/ml
Compound: CC(=O)SCC(Cc1ccccc1)C(=O)NCC(=O)OCc1ccccc1 (stereo not shown) [Racecadotril]
